{"source": "patent US8642590B2", "about": "“Alkylcyclohexylethers of dihydrotetraazabenzoazulenes” (Hoffmann-La Roche Inc., priority 2008, dated 2014)", "note": "Structures can show the parent of a compound that is named as a salt.", "data": [{"molecular_target": "T1, human V1a receptor (Homo sapiens, UniProt P37288)", "T1 construct": "expressed in transfected cells; host or cells: HEK293 cells, transiently transfected; cell membranes prepared", "T1 sequence (P37288 whole entry)": "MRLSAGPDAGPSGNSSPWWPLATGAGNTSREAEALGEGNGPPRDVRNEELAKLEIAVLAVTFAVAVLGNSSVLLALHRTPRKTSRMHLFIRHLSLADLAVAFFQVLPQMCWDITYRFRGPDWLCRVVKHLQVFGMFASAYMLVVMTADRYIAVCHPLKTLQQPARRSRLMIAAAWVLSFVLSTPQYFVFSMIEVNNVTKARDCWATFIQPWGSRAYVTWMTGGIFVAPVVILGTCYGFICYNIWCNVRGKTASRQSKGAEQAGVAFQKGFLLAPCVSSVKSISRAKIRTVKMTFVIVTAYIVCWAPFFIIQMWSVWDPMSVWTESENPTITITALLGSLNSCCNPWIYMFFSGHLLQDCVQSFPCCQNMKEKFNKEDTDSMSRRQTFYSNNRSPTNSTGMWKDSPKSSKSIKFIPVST", "experiment": "human V1a receptor binding study (3H-Vasopressin, SPA beads, HEK293 membranes)", "settings": "membranes of HEK293 cells transiently transfected with human V1a receptor; 3H-Vasopressin; Ki calculated using the Cheng-Prussoff equation; read-out: pKi (hV1a) (converted)", "protocol": "The human V1a receptor was cloned by RT-PCR from total human liver RNA. The coding sequence was subcloned in an expression vector after sequencing to confirm the identity of the amplified sequence. […] Cell membranes were prepared from HEK293 cells transiently transfected with the expression vector and grown in 20 liter fermenters with the following protocol.\n50 g of cells are resuspended in 30 ml freshly prepared ice cold Lysis buffer (50 mM HEPES, 1 mM EDTA, 10 mM magnesium dichloride adjusted to pH=7.4+complete cocktail of protease inhibitor (Roche Diagnostics)). Homogenized with Polytron for 1 min and sonicated on ice for 2×2 minutes at 80% intensity (Vibracell sonicator). The preparation is centrifuged 20 min at 500 g at 4° C., the pellet is discarded and the supernatant centrifuged 1 hour at 43,000 g at 4° C. (19,000 rpm). The pellet is resuspended in 12.5 ml Lysis buffer+12.5 ml Sucrose 20% and homogenized using a Polytron for 1-2 min. The protein concentration is determined by the Bradford method and aliquots are stored at −80° C. until use. For binding studies 60 mg Yttrium silicate SPA beads (Amersham) are mixed with an aliquot of membrane in binding buffer (50 mM Tris, 120 mM sodium chloride, 5 mM potassium chloride, 2 mM Calcium dichloride, 10 mM magnesium dichloride) for 15 minutes with mixing. 50 μl of bead/membrane mixture is then added to each well of a 96 well plate, followed by 50 μl of 4 nM 3H-Vasopressin (American Radiolabeled Chemicals). For total binding measurement 100 μl of binding buffer are added to the respective wells, for non-specific binding 100 μl of 8.4 mM cold vasopressin and for compound testing 100 μl of a serial dilution of each compound in 2% dimethyl sulfoxide. The plate is incubated 1 h at room temperature, centrifuged 1 min at 1000 g and counted on a Packard Top-Count. Non-specific binding counts are subtracted from each well and data is normalized to the maximum specific binding set at 100%. To calculate an IC 50 the curve is fitted using a non-linear regression model (XLfit) and the Ki is calculated using the Cheng-Prussoff equation.", "units": {"Ki": "nM"}, "values": [{"smiles": "CCC(C)O[C@H]1CC[C@H](c2nnc3n2-c2ccc(Cl)cc2CN(C(=O)OC(C)(C)C)C3)CC1", "note": "(mixture of isomers) [Example 25, (RS)-trans-1-(4-sec-Butoxy-cyclohexyl)-8-chloro-4H,6H-2,3,5,10b-tetraaza-benzo[e]azulene-5-carboxylic acid tert-butyl ester]", "Ki": 3.72}, {"smiles": "CCC(C)O[C@H]1CC[C@H](c2nnc3n2-c2ccc(Cl)cc2CNC3)CC1", "note": "(mixture of isomers) [Example 26, (RS)-trans-1-(4-sec-Butoxy-cyclohexyl)-8-chloro-5,6-dihydro-4H-2,3,5,10b-tetraaza-benzo[e]azulene hydrochloride]", "Ki": 12.6}, {"smiles": "CCC(C)O[C@H]1CC[C@H](c2nnc3n2-c2ccc(Cl)cc2CN(C)C3)CC1", "note": "(mixture of isomers) [Example 27, (RS)-trans-1-(4-sec-Butoxy-cyclohexyl)-8-chloro-5-methyl-5,6-dihydro-4H-2,3,5,10b-tetraaza-benzo[e]azulene]", "Ki": 2.09}, {"smiles": "COCC(C)O[C@H]1CC[C@H](c2nnc3n2-c2ccc(Cl)cc2CN(C(=O)OC(C)(C)C)C3)CC1", "note": "(mixture of isomers) [Example 45, (RS)-trans-8-Chloro-1-[4-(2-methoxy-1-methyl-ethoxy)-cyclohexyl]-4H,6H-2,3,5,10b-tetraaza-benzo[e]azulene-5-carboxylic acid tert-butyl ester]", "Ki": 3.72}, {"smiles": "COCC(C)O[C@H]1CC[C@H](c2nnc3n2-c2ccc(Cl)cc2CNC3)CC1", "note": "(mixture of isomers) [Example 46, (RS)-trans-8-Chloro-1-[4-(2-methoxy-1-methyl-ethoxy)-cyclohexyl]-5,6-dihydro-4H-2,3,5,10b-tetraaza-benzo[e]azulene hydrochloride]", "Ki": 117}, {"smiles": "COCC(C)O[C@H]1CC[C@H](c2nnc3n2-c2ccc(Cl)cc2CN(C)C3)CC1", "note": "(mixture of isomers) [Example 47, (RS)-trans-8-Chloro-1-[4-(2-methoxy-1-methyl-ethoxy)-cyclohexyl]-5-methyl-5,6-dihydro-4H-2,3,5,10b-tetraaza-benzo[e]azulene]", "Ki": 11.2}, {"smiles": "CC(CO)O[C@H]1CC[C@H](c2nnc3n2-c2ccc(Cl)cc2CN(C(=O)OC(C)(C)C)C3)CC1", "note": "(mixture of isomers) [Example 50, (RS)-trans-8-Chloro-1-[4-(2-hydroxy-1-methyl-ethoxy)-cyclohexyl]-4H,6H-2,3,5,10b-tetraaza-benzo[e]azulene-5-carboxylic acid tert-butyl ester]", "Ki": 2.69}, {"smiles": "CC(CO)O[C@H]1CC[C@H](c2nnc3n2-c2ccc(Cl)cc2CNC3)CC1", "note": "(mixture of isomers) [Example 51, (RS)-trans-2-[4-(8-Chloro-5,6-dihydro-4H-2,3,5,10b-tetraaza-benzo[e]azulen-1-yl)-cyclohexyloxy]-propan-1-ol hydrochloride]", "Ki": 186}, {"smiles": "CC(CO)O[C@H]1CC[C@H](c2nnc3n2-c2ccc(Cl)cc2CN(C)C3)CC1", "note": "(mixture of isomers) [Example 52, (RS)-trans-2-[4-(8-Chloro-5-methyl-5,6-dihydro-4H-2,3,5,10b-tetraaza-benzo[e]azulen-1-yl)-cyclohexyloxy]-propan-1-ol]", "Ki": 19.1}, {"smiles": "CC(CF)O[C@H]1CC[C@H](c2nnc3n2-c2ccc(Cl)cc2CN(C)C3)CC1", "note": "(mixture of isomers) [Example 53, (RS)-trans-8-Chloro-1-[4-(2-fluoro-1-methyl-ethoxy)-cyclohexyl]-5-methyl-5,6-dihydro-4H-2,3,5,10b-tetraaza-benzo[e]azulene]", "Ki": 2.82}, {"smiles": "CC(CC(F)(F)F)O[C@H]1CC[C@H](c2nnc3n2-c2ccc(Cl)cc2CN(C(=O)OC(C)(C)C)C3)CC1", "note": "(mixture of isomers) [Example 54, (RS)-trans-8-Chloro-1-[4-(3,3,3-trifluoro-1-methyl-propoxy)-cyclohexyl]-4H,6H-2,3,5,10b-tetraaza-benzo[e]azulene-5-carboxylic acid tert-butyl ester]", "Ki": 8.51}, {"smiles": "CC(CC(F)(F)F)O[C@H]1CC[C@H](c2nnc3n2-c2ccc(Cl)cc2CNC3)CC1", "note": "(mixture of isomers) [Example 55, (RS)-trans-8-Chloro-1-[4-(3,3,3-trifluoro-1-methyl-propoxy)-cyclohexyl]-5,6-dihydro-4H-2,3,5,10b-tetraaza-benzo[e]azulene hydrochloride]", "Ki": 75.9}, {"smiles": "CC(CC(F)(F)F)O[C@H]1CC[C@H](c2nnc3n2-c2ccc(Cl)cc2CN(C)C3)CC1", "note": "(mixture of isomers) [Example 56, (RS)-trans-8-Chloro-5-methyl-1-[4-(3,3,3-trifluoro-1-methyl-propoxy)-cyclohexyl]-5,6-dihydro-4H-2,3,5,10b-tetraaza-benzo[e]azulene]", "Ki": 6.76}, {"smiles": "CC[C@H](C)O[C@H]1CC[C@H](c2nnc3n2-c2ccc(Cl)cc2CN(C)C3)CC1", "note": "(single isomer, unassigned) [Example 28, (+)-trans-1-(4-sec-Butoxy-cyclohexyl)-8-chloro-5-methyl-5,6-dihydro-4H-2,3,5,10b-tetraaza-benzo[e]azulene]", "Ki": 1.58}, {"smiles": "CC[C@@H](C)O[C@H]1CC[C@H](c2nnc3n2-c2ccc(Cl)cc2CN(C)C3)CC1", "note": "(single isomer, unassigned) [Example 29, (−)-trans-1-(4-sec-Butoxy-cyclohexyl)-8-chloro-5-methyl-5,6-dihydro-4H-2,3,5,10b-tetraaza-benzo[e]azulene]", "Ki": 1.58}, {"smiles": "CC(C)(C)OC(=O)N1Cc2cc(Cl)ccc2-n2c(nnc2[C@H]2CC[C@H](OC3CCCC3)CC2)C1", "note": "(stereo in doubt) [Example 36, trans-8-Chloro-1-(4-cyclopentyloxy-cyclohexyl)-4H,6H-2,3,5,10b-tetraaza-benzo[e]azulene-5-carboxylic acid tert-butyl ester]", "Ki": 3.24}, {"smiles": "COC[C@H](C)O[C@H]1CC[C@H](c2nnc3n2-c2ccc(Cl)cc2CN(C)C3)CC1", "note": "(stereo in doubt) [Example 48, (+)-trans-8-Chloro-1-[4-(2-methoxy-1-methyl-ethoxy)-cyclohexyl]-5-methyl-5,6-dihydro-4H-2,3,5,10b-tetraaza-benzo[e]azulene]", "Ki": 47.9}, {"smiles": "COC[C@@H](C)O[C@H]1CC[C@H](c2nnc3n2-c2ccc(Cl)cc2CN(C)C3)CC1", "note": "(stereo in doubt) [Example 49, (−)-trans-8-Chloro-1-[4-(2-methoxy-1-methyl-ethoxy)-cyclohexyl]-5-methyl-5,6-dihydro-4H-2,3,5,10b-tetraaza-benzo[e]azulene]", "Ki": 5.5}, {"smiles": "CO[C@H]1CC[C@@H](c2nnc3n2-c2ccc(Cl)cc2CN(C)C3)CC1", "note": "[Example 1, cis-8-Chloro-1-(4-methoxy-cyclohexyl)-5-methyl-5,6-dihydro-4H-2,3,5,10b-tetraaza-benzo[e]azulene]", "Ki": 93.3}, {"smiles": "CCO[C@H]1CC[C@H](c2nnc3n2-c2ccc(Cl)cc2CN(C(=O)OC(C)(C)C)C3)CC1", "note": "[Example 2, trans-8-Chloro-1-(4-ethoxy-cyclohexyl)-4H,6H-2,3,5,10b-tetraaza-benzo[e]azulene-5-carboxylic acid tert-butyl ester]", "Ki": 2.4}, {"smiles": "CCO[C@H]1CC[C@H](c2nnc3n2-c2ccc(Cl)cc2CNC3)CC1", "note": "[Example 3, trans-8-Chloro-1-(4-ethoxy-cyclohexyl)-5,6-dihydro-4H-2,3,5,10b-tetraaza-benzo[e]azulene hydrochloride]", "Ki": 63.1}, {"smiles": "CCO[C@H]1CC[C@H](c2nnc3n2-c2ccc(Cl)cc2CN(C)C3)CC1", "note": "[Example 4, trans-8-Chloro-1-(4-ethoxy-cyclohexyl)-5-methyl-5,6-dihydro-4H-2,3,5,10b-tetraaza-benzo[e]azulene]", "Ki": 6.76}, {"smiles": "CCO[C@H]1CC[C@@H](c2nnc3n2-c2ccc(Cl)cc2CN(C(=O)OC(C)(C)C)C3)CC1", "note": "[Example 5, cis-8-Chloro-1-(4-ethoxy-cyclohexyl)-4H,6H-2,3,5,10b-tetraaza-benzo[e]azulene-5-carboxylic acid tert-butyl ester]", "Ki": 14.1}, {"smiles": "CCO[C@H]1CC[C@@H](c2nnc3n2-c2ccc(Cl)cc2CNC3)CC1", "note": "[Example 6, cis-8-Chloro-1-(4-ethoxy-cyclohexyl)-5,6-dihydro-4H-2,3,5,10b-tetraaza-benzo[e]azulene hydrochloride]", "Ki": 891}, {"smiles": "CCO[C@H]1CC[C@@H](c2nnc3n2-c2ccc(Cl)cc2CN(C)C3)CC1", "note": "[Example 7, cis-8-Chloro-1-(4-ethoxy-cyclohexyl)-5-methyl-5,6-dihydro-4H-2,3,5,10b-tetraaza-benzo[e]azulene]", "Ki": 55}, {"smiles": "CC(C)O[C@H]1CC[C@H](c2nnc3n2-c2ccc(Cl)cc2CN(C(=O)OC(C)(C)C)C3)CC1", "note": "[Example 8, trans-8-Chloro-1-(4-isopropoxy-cyclohexyl)-4H,6H-2,3,5,10b-tetraaza-benzo[e]azulene-5-carboxylic acid tert-butyl ester]", "Ki": 1.29}, {"smiles": "CC(C)O[C@H]1CC[C@H](c2nnc3n2-c2ccc(Cl)cc2CNC3)CC1", "note": "[Example 9, trans-8-Chloro-1-(4-isopropoxy-cyclohexyl)-5,6-dihydro-4H-2,3,5,10b-tetraaza-benzo[e]azulene hydrochloride]", "Ki": 17.4}]}]}
